Laboratory results: ChEMBL document CHEMBL1141999, “Biaryls and heterobiaryls as alpha-glucosidase and protein tyrosine phosphatase inhibitors” (Bioorg Med Chem Lett, 2005)

How the values were obtained:
[1] = molecular target: T1, Neutral alpha-glucosidase AB (Homo sapiens) (UniProt Q14697); assay: Percentage inhibition (100 uM) against Alpha glucosidase
T1 sequence (whole entry): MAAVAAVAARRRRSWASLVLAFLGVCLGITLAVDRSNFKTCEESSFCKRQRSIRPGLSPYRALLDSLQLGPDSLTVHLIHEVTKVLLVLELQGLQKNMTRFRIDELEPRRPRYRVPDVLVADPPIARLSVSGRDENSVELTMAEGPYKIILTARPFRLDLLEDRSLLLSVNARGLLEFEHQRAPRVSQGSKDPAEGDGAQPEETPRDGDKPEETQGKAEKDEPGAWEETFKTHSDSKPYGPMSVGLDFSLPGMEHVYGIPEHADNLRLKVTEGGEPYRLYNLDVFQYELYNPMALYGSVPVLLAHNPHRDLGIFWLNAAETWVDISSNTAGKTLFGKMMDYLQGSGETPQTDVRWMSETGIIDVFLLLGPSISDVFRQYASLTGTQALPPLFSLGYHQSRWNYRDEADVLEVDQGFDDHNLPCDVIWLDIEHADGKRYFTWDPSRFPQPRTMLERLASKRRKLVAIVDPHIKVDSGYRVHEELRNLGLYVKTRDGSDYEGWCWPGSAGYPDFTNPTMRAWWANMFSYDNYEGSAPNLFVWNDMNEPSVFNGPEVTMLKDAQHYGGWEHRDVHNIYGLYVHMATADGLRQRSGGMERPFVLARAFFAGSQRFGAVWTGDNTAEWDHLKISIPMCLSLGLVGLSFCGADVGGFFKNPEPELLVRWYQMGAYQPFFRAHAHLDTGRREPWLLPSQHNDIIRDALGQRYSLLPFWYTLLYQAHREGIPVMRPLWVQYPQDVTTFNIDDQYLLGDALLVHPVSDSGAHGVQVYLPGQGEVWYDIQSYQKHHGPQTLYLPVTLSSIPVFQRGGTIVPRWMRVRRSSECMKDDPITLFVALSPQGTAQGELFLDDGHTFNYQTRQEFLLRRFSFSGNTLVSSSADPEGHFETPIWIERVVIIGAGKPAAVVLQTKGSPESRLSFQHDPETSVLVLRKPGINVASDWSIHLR

[2] = Percentage inhibition (100 uM) against protein tyrosine […]

Compound | inhibition [1] | inhibition [2]
N#Cc1c(-c2ccc(C(F)(F)F)cc2)cc(-c2ccc3ccc4cccc5ccc2c3c45)cc1N1CCCC1 | 93.8% | 12.5%
N#Cc1c(N2CCc3ccccc3C2)cc(-c2ccc(Cl)cc2)c2c1CCCCC2 | 47.4% | 42.8%
N#Cc1c(N2CCc3ccccc3C2)cc(-c2cccc3ccccc23)c2c1CCSC2 | 96.1% | 26.7%
SODIUM ORTHOVANAD |  | 77.6%
N#Cc1c(N2CCc3ccccc3C2)cc(-c2ccc(Br)cc2)oc1=O | 59.7% | 25.1%
N#Cc1c(N2CCc3ccccc3C2)cc(-c2cccc3ccccc23)c2c1-c1ccccc1CC2 | 94.8% | 51.8%
N#Cc1c(N2CCc3ccccc3C2)cc(-c2ccc(Cl)cc2)c2c1CCCCCC2 | 28.8% | 24.2%
C[C@H]1O[C@H](O[C@H]2[C@H](O)[C@@H](O)[C@@H](O[C@H]3[C@H](O)[C@@H](O)C(O)O[C@@H]3CO)O[C@@H]2CO)[C@H](O)[C@@H](O)[C@@H]1N[C@H]1C=C(CO)[C@@H](O)[C@H](O)[C@H]1O (some centres not stated) | 90% | 
N#Cc1c(N2CCc3ccccc3C2)cc(-c2ccc(Cl)cc2)oc1=O | 51.9% | 18.2%
N#Cc1c(N2CCc3ccccc3C2)cc(-c2cccc3ccccc23)c2c1CCCC2 | 72.2% | 14.8%
N#Cc1c(N2CCc3ccccc3C2)cc(-c2ccc(Cl)cc2)c2c1CCCC2 | 20.7% | 23.2%
N#Cc1c(N2CCc3ccccc3C2)cc(-c2cccc3ccccc23)c2c1-c1ccccc1SC2 | 98.7% | 41.9%
